Data published in patent publication US20100233701A1, “Use of non-clonal chromosomal aberrations for cancer research and clinical diagnosis” (priority 2008, published 2010).
Peptide text beside a SMILES is read from it. * marks the point of attachment. Cbz = O=C(OCc1ccccc1)*; CH2F = FC*

How the values were obtained:
[1] = test system: BT549; assay: SKY analysis of NCCAs after proteasome inhibitor treatment; type: cell-based; settings: following treatment
Source text: (§1) Following probe denaturation, hybridization and SKY detection, randomly selected mitotic figures were photographed and analyzed by SKY imaging software. Fifty to hundred SKY images were captured for each cell population to identify commonly shared karyotype features and to reveal the karyotypic diversity of these various cell populations. NCCAs were scored by identifying chromosomal numbers, chromosome translocations/large deletions or other types of abnormality detected within a given mitotic cell. There are two steps needed to score frequencies of NCCAs and CCAs. First, a 4% cutoff line is used to identify any specific recurrent karyotypes or CCAs. The frequency of a CCA is determined by calculating the number of cells displaying the same CCA divided by the total cells examined (50-100). Non-clonal karyotypes (NCCAs) are classified as having a frequency lower than 4%. The total frequencies of NCCAs of a given cell population is then calculated by using all cells displaying NCCAs divided by the total cells examined.
(§2) 5. A comparison of specific and non-specific drugs that target the same pathway: In order to compare directly the effects of challenging the same molecular pathway with specific or nonspecific drug treatments with regard to genome system stability and evolution, the protein degradation pathway was chosen. Two proteasome inhibitors, Bortezomib (also named Velcade or PS-341) and MG132 were used. […] Compared to 132, Bortezomib is more specific. Two breast cancer cell lines, MDA-MB-231 and BT549, were used for this comparison. […] After a few weeks culture, there seemed to be no drastic changes in terms of the formation of new karyotypes.

[2] = test system: MDA-MB-231; assay: as above; type: cell-based; settings: immediately following treatment
Source text: as §1, §2

[3] = test system: ER stress pathways; assay: ER stress agents, western blot and SKY analysis of NCCAs; type: cell-based; settings: for NCCA levels: SKY analysis following a short period of culture; for ER stress pathway activation: western blot analysis following the drug treatment
Source text: The inventors herein then determined to use a more defined stress condition to validate the link between the stress and the genome evolution. Since the endoplasmic reticulum (ER) has an important role in sensing cellular stress, and the ER stress is well studied, the inventors hypothesize that the defined ER stress will also generate elevated NCCAs leading to the formation of new karyotypes. Specific agents were used to target specific pathways of ER stress including tharpsigargin, tunicamycin and DTT. Tunicamycin interferes with glycalation and results in induction of ER stress. Tharpsigargin inhibits the endoplasmic reticulum calcium ATPase, and results in the release of calcium from the ER, and DTT induces reductive stress through its activity in breaking disulfide bonds which leads to induction of the unfolded protein response. […] As illustrated, the specific ER stress pathways were indeed active in three treatments.

[4] = test system: cisplatin resistance cell line; assay: SKY analysis of NCCAs after Bcl-2 inhibitor treatment; type: cell-based
Source text: as §1
4. […] To examine this issue, TW-37, a small-molecule inhibitor drug that specifically binds to and inhibits Bcl-2 was used in a cisplatin resistance cell line that was previously tested. Under treatment conditions resulting in 50% cell death, surviving cells of two cell lines were followed with SKY analysis. […]

[5] = test system: HCT116 p53−/− cells; assay: Mitotic catastrophe model, aphidicolin, scored for chromosome fragmentation; type: cell-based; settings: for mitotic fraction: conventional cytogenetic analysis
Experimental: (§3) Induction of mitotic catastrophe. Mitotic catastrophe was induced as herein described. HCT116 14-3-3−/− cells were treated for up to 72 h with 2 μg/mL doxorubicin and HCT116 p53−/−. The cells were treated with 1 μg/mL aphidicolin for up to 96 h and were each harvested every 24 h. Cytogenetic preparations and cytospin preparations were made allowing for chromosomal and morphologic analysis.
(§4) The present mitotic cell death process differs from previously described mitotic catastrophe. Mitotic catastrophe has been loosely defined as cell death that results from aberrant mitoses. […] Not only do the definitions of mitotic catastrophe differ but there is also a lack of morphologic characterization of chromosomes from cells undergoing mitotic catastrophe. […] Cells were induced to undergo mitotic catastrophe according to published reports. Half of the cells were prepared using reported protocols and half were prepared according to standard cytogenetic procedure to score chromosome fragmentation frequency.

[6] = test system: HCT116 p53−/− cells; settings: 72 h, reported; cited from earlier work
[7] = test system: OV433 and TOV112D cell lines; assay: Selection of cisplatin resistant clones, karyotypes by SKY; type: cell-based; settings: 6-9 months of selection by gradually increased concentrations
Experimental: 3. Less specific targeted drugs can cause karyotypic changes: A well accepted mechanism of drug resistance acquisition is a specific gene mutation linked to a defined molecular pathway such as the cell death pathway, multiple drug resistance pathway or chromosomal machinery that is responsible for genome integrity. In order to test such a mechanism in the context of genome system evolution, well characterized ovarian cancer cell lines were treated with cisplatin, which is a drug commonly used to treat various types of cancers. The mechanism of this drug is thought to be binding and cross-linking of DNA by platinum complexes, which ultimately triggers apoptosis. The mechanisms of cisplatin resistance have been proposed to include changes in cellular uptake, increased detoxification of the drug, inhibition of apoptosis and increased DNA repair.
The karyotypes were examined by SKY and some key pathways possibly related to the acquisition of drug resistance in the clones were analyzed by western blots.

[8] = test system: mitotic cells; assay: Induction of chromosome fragmentation (fragmentation index, cytogenetic scoring); type: cell-based
Experimental: Induction of chromosome fragmentation. After 3 to 8 h treatment of colcemid, mitotic cells were gently shaken off and resuspended in culture medium containing colcemid. Cells were then treated with doxorubicin or methotrexate at 1 μg/mL for various times. Cytogenetic examination. Cells were harvested and cytogenetic slides were prepared using standard protocols. Slides were stained by Giemsa for scoring nuclear structures or stored at −20° C. for further characterization including spectral karyotyping (SKY) and antibody staining. The fragmentation index was determined by dividing the number of cells displaying chromosome fragmentation by the total number of mitotic cells, including cells undergoing chromosome fragmentation.

[9] = test system: cell population; assay: High stress drug treatment, NCCAs and karyotypes; type: cell-based; settings: immediately after treatment of a high dosage
Source text: First, the same cell line was used with both “high” and “low” levels of stress applied respectively. High stress was applied through chemo-therapy drug treatments (doxorubicin) (Dox) while low stress was generated by altering culture conditions. […] This was illustrated by the drastically altered karyotypes in every cell examined, which persisted until certain karyotypes became dominant (completing the transition from high levels of NCCAs to specific CCAs) following at least 6 weeks of culture in a drug free medium.

[10] = test system: HCT116 14-3-3−/− cells; assay: Mitotic catastrophe model, doxorubicin, scored for chromosome fragmentation; type: cell-based; settings: low dose of doxorubicin
Experimental: as §3, §4

[11] = test system: HCT116 cells; assay: Caspase inhibition during induced chromosome fragmentation; type: cell-based; settings: pretreatment with z-vad-fmk, then colcemid and doxorubicin, 6 and 12 h
Experimental: Cytogenetic examination. Cells were harvested and cytogenetic slides were prepared using standard protocols. Slides were stained by Giemsa for scoring nuclear structures or stored at −20° C. for further characterization including spectral karyotyping (SKY) and antibody staining. The fragmentation index was determined by dividing the number of cells displaying chromosome fragmentation by the total number of mitotic cells, including cells undergoing chromosome fragmentation.
Caspase inhibition. Caspase activity was inhibited by treatment of HCT116 cells for 12 h with […] z-vad-fmk followed induction of chromosome fragmentation (by concurrent treatment with colcemid and 1 μg/mL doxorubicin) for 6 or 12 h in the presence of or after removal of z-vad-fmk. Following treatment, cytogenetic slides were made and scored.

[12] = biological target: T1, caspase-3 (Homo sapiens, UniProt P42574); assay: Caspase-3 colorimetric activity assay; type: cell-based; settings: 20 μmol/L, cells treated with colcemid and doxorubicin
T1 construct: endogenous in cells; host or cells: HCT116
T1 sequence (P42574 29-175 limits assumed): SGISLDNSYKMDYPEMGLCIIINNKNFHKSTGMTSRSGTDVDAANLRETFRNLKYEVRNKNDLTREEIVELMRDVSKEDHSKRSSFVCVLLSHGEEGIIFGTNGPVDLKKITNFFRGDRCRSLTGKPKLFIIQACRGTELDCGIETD
T1 sequence (P42574 176-277 limits assumed): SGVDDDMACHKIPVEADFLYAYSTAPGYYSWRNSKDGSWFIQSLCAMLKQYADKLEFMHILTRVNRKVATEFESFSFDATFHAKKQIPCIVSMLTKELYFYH
Experimental: Caspase-3 activity. Caspase-3 activity was measured using the caspase-3 colorimetric assay kit from R&D Systems as herein described. HCT116 cells were treated for 8 h with colcemid with and without z-vad-fmk. Mitotic cells were then shaken off and treated with doxorubicin for an additional 6 h and 12 h.

For CC(C)C[C@H](NC(=O)[C@H](Cc1ccccc1)NC(=O)c1cnccn1)B(O)O [Bortezomib], the NCCA frequencies [1] was “failed to generate increased NCCA frequencies” and the NCCAs [2] was “showed an increase in NCCAs”.

For O[C@@H](CS)[C@@H](O)CS [DTT], the NCCA levels [3] was “elevated NCCAs were observed” and the “ER stress pathway activation” value [3] was “indeed active”.

For CC(C)C[C@@H](C=O)NC(=O)[C@H](CC(C)C)NC(=O)[C@H](CC(C)C)NC(=O)OCc1ccccc1 [MG132] (Cbz-Leu-Leu-Leu-aldehyde), the NCCA frequencies [1] was “failed to generate increased NCCA frequencies” and the NCCAs [2] was “showed an increase in NCCAs”.

In the case of CC(C)c1ccccc1Cc1cc(C(=O)Nc2ccc(S(=O)(=O)c3ccccc3C(C)(C)C)cc2)c(O)c(O)c1O [TW-37], the “formation of new karyotypes” value ([4]; after a few weeks of culture) is reported as “new stable karyotypes were detected” and the “frequencies of NCCAs” value ([4]; treatment conditions resulting in 50% cell death, surviving cells of two cell lines) is reported as “increased”.

With C[C@@]1(CO)[C@H](O)CC[C@@]2(C)[C@H]1CC[C@H]1C[C@@H]3C[C@@]12CC[C@]3(O)CO [aphidicolin] the mitotic fraction ([5]; 72 h) was 3.2%, the chromosome breaks ([5]; 96 h) was “evident in the majority of chromosome spreads” and the mitotic fraction ([5]; 96 h) was 5.4%. For the same compound, the cells died [6] was 40%.

With N.N.[Cl][Pt][Cl] [cisplatin] the “karyotypes of drug resistant clones” value [7] was “drastically different karyotypes”.

With COc1cccc2c1C(=O)c1c(O)c3c(c(O)c1C2=O)C[C@@](O)(C(=O)CO)C[C@@H]3O[C@H]1C[C@H](N)[C@H](O)[C@H](C)O1 [doxorubicin] the “induction of chromosome fragmentation” value [8] was “can induce chromosome fragmentation”, the “chromosome fragmentation in interphase cells” value ([8]; interphase cells, doxorubicin and colcemid preceded by a double thymidine block, up to 24 h) was “no chromosome fragmentation was observed” and the “mitotic cells showing a degree of chromosome fragmentation” value ([8]; mitotic shake-off cells arrested with colcemid, concurrent doxorubicin, within 12 h) was roughly 100%. The “level of NCCAs” value [9] was “a high level of NCCAs was quickly detected”, the “phosphorylated H3 staining” value [10] was “only a very small fraction of cells show any positive signal” and the chromosome fragmentation ([10]; conventional cytogenetic protocols) was “chromosome fragmentation was not evident”.

In the case of CN(Cc1cnc2nc(N)nc(N)c2n1)c1ccc(C(=O)N[C@@H](CCC(=O)O)C(=O)O)cc1 [methotrexate], the “induction of chromosome fragmentation” value [8] is reported as “can induce chromosome fragmentation”.

For COC(=O)C[C@H](NC(=O)[C@H](C)NC(=O)[C@@H](NC(=O)OCc1ccccc1)C(C)C)C(=O)CF [z-vad-fmk] (Cbz-Val-Ala-Asp(OMe)-CH2F), the “chromosome fragmentation frequency upon caspase inhibition” value [11] was “not significantly altered” and the caspase-3 reactivity [12] was “largely inhibited”.

For tharpsigargin, the NCCA levels [3] was “elevated NCCAs were observed” and the “ER stress pathway activation” value [3] was “indeed active”.

With tunicamycin the NCCA levels [3] was “elevated NCCAs were observed” and the “ER stress pathway activation” value [3] was “indeed active”.
